Here are results for one compound from US10934346B2, “Modified T cell comprising a polynucleotide encoding an inducible stimulating molecule comprising MyD88, CD40 and FKBP12” (priority 2014, dated 2021).

Entries after “also recorded” stand apart in the source; their conditions may differ.

Experiment [1] deals with JNK, Akt, RelA, ERK and p38 MAPK. The experiment in a line: Phosphorylation of downstream signaling molecules (Milliplex MAP assay, immunoblotting). The format is cell-based, human. Particulars: 10 nM rimiducid, iMC T cells. The method, then: Immunoblotting. Primary human T cells transduced with either SFG-FKBP-2A-ΔCD19 or SFG-iMC-2A-ΔCD19 (4×10^6 per point) were cultured for the indicated time points in a 37° C. water bath with either 10 nM rimiducid, 250 nM each PMA and ionomycin, or media alone. Media as removed by aspiration after centrifugation at 6000 rpm for 2 min at 4° C. Cytoplasmic extracts were prepared by lysis in 100 μl radioimmuno-precipitation assay buffer (50 mM Tris, 150 mM NaCl, 1% NP40, 2 mM EDTA, 0.1% SDS, 0.25% sodium deoxycholate) containing 1×MS-SAFE (Roche). Lysates were incubated on ice for 10 min and cytoplasmic fractions were cleared by centrifugation at 11,000 rpm for 20 min at 4° C. […] Bound Abs were detected by HRP-conjugated goat-anti-rabbit IgG Ab (Pierce), followed by ECL (Pierce) and detection on a Gel Logic imaging system (Carestream). […]
Phosphorylated epitopes were detected in Assay Buffer 2 (MILLIPLEX MAP kit) with antibodies specific for p-RelA(S536), p-Akt(S473), p-p38(T180/Y182), p-JNK(T183/Y185), p-ERK1/2(T202/Y204) (custom MILLIPLEX Magnetic Bead MAPMATE kit; Millipore) or GAPDH as a control for total protein content. Fold increase in phosphorylation was calculated by net MFI of rimiducid treatment at a given time point divided by the net MFI of the corresponding non-stimulated time point. […]
For orientation: In western blotting, separated proteins are transferred to a membrane and probed.

In experiment [2] the test system is iMC-expressing T cells. In words: Survival and growth of iMC-transduced T cells with weekly rimiducid, with or without IL-2. The format is cell-based, human. The method, then:
FIGS. 8A-8C provide assay results of iMC signaling in primary T cells induces cell survival in the absence of IL-2. FIG. 8A and FIG. 8B) FKBP and iMC transduced T cells were cultured in media supplemented with or without 100 U/ml IL-2 and stimulated on a weekly basis with 10 nM rimiducid (CID) and measured for growth by cell counting. FIG. 8C) iMC-modified T cells cultured in media without IL-2, with and without CID stimulation, were measured for viability by flow cytometry (SSC, FSC) after 42 days in culture. * indicates p-value <0.05.
The phosphorylation of key downstream signaling molecules, including JNK, Akt, RelA, ERK and p38 MAPK was measured in the induced iMC T cells.

Experiment [3] deals with BLK CL4 fibroblasts. In words: IL-6 ELISA of adenovirus-transduced BLK CL4 fibroblasts with AP1903. The format is cell-based. To be noted: 100 nM AP1903. How it is done:
BLK.CL4 fibroblasts were cultured at 175,000 cells/ml/well in 24-well plates. Adenoviruses were added at 6000, 12000, 18000, 24000 and 30000 virus/cell ratio and cells were incubated for 24 hours. Then, 100 nM of AP1903 was added to all the wells, and the following day cells and culture supernatants were harvested. A. Cells were labeled with anti-human PSMA antibody, LNI-17, (Biolegend, San Diego, Calif.) and PSMA expression was analyzed by flow cytometry. Represented is the percentage of PSMA^+ cells when compared to non-transduced cells. B. IL-6 was evaluated from the culture supernatants by ELISA (e-Bioscience, San Diego, Calif.). For FIG. 31, BLK.CL4 fibroblasts were cultured at 350,000 cells/well in 6-well plates. Adenoviruses were added at 20,000 v.p./cell ratio and cells were incubated for 24 hours. Then, 100 nM of AP1903 was added, and the following day culture supernatants were harvested. IL-6 was evaluated from the culture supernatants by ELISA (e-Bioscience, San Diego, Calif.).

Experiment [4] has as its system CAPAN-1 GFP+ tumor cells. The experiment in a line: Co-culture of iMC-enabled T cells with CAPAN-1-GFP tumor cells. Particulars: 10 nM AP1903, 5:1 T cells to tumor cells, 72 hours, RV-172 T cells. The format is cell-based, human. The method, then: FIG. 53 Activation of iMC-transduced T cells with AP1903 induces T cell killing of tumor cells. […] Co-cultures were cultured with or without 10 nM AP1903. After 72 hours, co-cultures were analyzed for GFP^+ tumor cells (X-axis) by flow cytometry.
FIG. 55: Activation of iMC-transduced T cells with AP1903 induces T cell killing of tumor cells. […] Co-cultures were cultured with or without 10 nM AP1903. After 72 hours, co-cultures were analyzed for GFP^+ tumor cells by flow cytometry (n=2).
FIG. 56: Activation of iMC-transduced T cells with AP1903 induces T cell killing of tumor cells. […] Co-cultures were cultured with or without 10 nM AP1903.
3. Non-transduced T cells or cells transduced with RV-171 (control vector) or RV-172 (iMC vector) were cultured at a 5:1 ratio of T cells to tumor cells in media supplemented with 50 U/ml IL-2, and either with or without 10 nM AP1903. Co-cultures were then incubated at 37° C. and 5% CO2 for 72 hours. Cultures were subsequently analyzed for the presence of GFP^+ tumor cells by fluorescent microscopy and by harvesting the cultures with 0.25% trypsin/EDTA and measuring the frequency of GFP^+CD3^− tumor cells in the culture by flow cytometry.

In experiment [5] the test system is Capan-1-GFP tumor cells. In words: Coculture of CAR/iMC T cells with Capan-1-GFP tumor cells. Particulars: 10 nM rimiducid, PSCA.ζ CAR and iMC T cells, 7 days.
Protocol: FIG. 2C) Non-transduced and PSCA.ζ CAR T cells modified with either FKBP or iMC were cocultured with Capan-1-GFP tumor cells at a 1:1 T cell to tumor cell ratio with and without 10 nM rimiducid. Tumor cell and T cell frequency were assessed after 7 days by flow cytometry. Tumor cell frequency was assessed by flow cytometry by measuring CD3^−GFP^+ tumor cells by SSC/GFP gating. Enrichment of T cells coexpressing iMC and CAR were assessed in coculture assays by flow cytometry by measuring CD19-PE and anti-CAR-APC frequency, respectively. FIG. 2D) T cells were subsequently assessed for CD25 expression and measured for T cell proliferation (FIG. 2E) using flow cytometry and cell enumeration.
FIG. 12B) Non-transduced T cells and T cells transduced with FKBP^+PSCA.ζ, FKBP^+PSCA.28.ζ) or iMC^+PSCA.ζ were cocultured with Capan-1-GFP tumor cells at a 1:1 effector:target ratio for 7 days and analyzed for residual tumor cells (CD3^−GFP^+) by flow cytometry.
Coculture experiment. […] After 7 days, all residual cells were collected by trypsinization, counted and stained with CD3, CD19 and Fc-specific antibodies and analyzed by flow cytometry. […]

As to `CC[C@H](C(=O)N1CCCC[C@H]1C(=O)O[C@H](CCc1ccc(OC)c(OC)c1)c1cccc(OCC(=O)NCCNC(=O)COc2cccc([C@@H](CCc3ccc(OC)c(OC)c3)OC(=O)[C@@H]3CCCCN3C(=O)[C@@H](CC)c3cc(OC)c(OC)c(OC)c3)c2)c1)c1cc(OC)c(OC)c(OC)c1` (relative stereo) [rimiducid, 2-Piperidinecarboxylic acid, 1-[(2S)-1-oxo-2-(3,4,5-trimethoxyphenyl)butyl]-, 1,2-ethanediylbis [imino(2-oxo-2,1-ethanediyl)oxy-3,1-phenylene[(1R)-3-(3,4-Dimethoxyphenyl)propylidene]] ester, [2S-[1(R*),2R*[S*[S*[1(R*),2R*]]]]]-(9Cl)], in experiment [1], the “onset of signaling after exposure” value was ≤ 15 min; the “phosphorylation of signaling pathways” value is “each of these signaling pathways show increased phosphorylation in T cells, with MAPK and JNK showing the greatest rimiducid-dependent activation”. In experiment [2] (IL-2 withdrawn), the T cell proliferation entry is reported as “no proliferation was observed”. The “T cell survival and expansion” value in experiment [2] (in the presence of exogenous IL-2) was “increased T cell survival and cell expansion”. In addition, in experiment [3], the IL-6 production entry is given as “response to AP1903 by producing IL-6”. Besides, in experiment [4], the “GFP+ tumor cells remaining” value is “elimination of GFP^+ tumor cells; also recorded: showed very few viable GFP^+ tumor cells”. Besides, the “Capan-1-GFP tumor cell elimination” value in experiment [5] is reported as “further enhanced Capan-1-GFP elimination”.
